{"source": "patent US6331555A", "about": "“Treatment of platelet derived growth factor related disorders such as cancers” (priority 1999, dated 2001)", "key": {"[1]": {"tested_on": "glioblastoma multiformae (GBM) primary tumor cells", "assay": "Growth of primary tumor cells from glioblastoma patients", "type": "cell-based, human", "method": "Viable tumors were placed into medium by the pathologist at the referring institution immediately after surgery, and shipped to Oncotech by overnight delivery. As soon as a tumor was received, a portion was fixed in formalin for sectioning and the remainder trimmed of necrotic, connective and adipose tissues. All tumor manipulations were performed aseptically. The remaining tumor was placed into a Petri dish containing 5 mL of medium (RPMI 1640 supplemented with 10% FBS, 100 IU/mL penicillin, […] streptomycin and L-glutamine) and disaggregated mechanically with scissors into pieces 2 mm or smaller. […]\nAfter enzymatic dispersion into a near single-cell suspension, tumor cells were filtered through nylon mesh, washed in medium, suspended in soft agarose (0.12%) and plated at approximately 20,000 cells per well onto an agarose underlayer (0.4%) in 24-well plates. […] After the appropriate labeling period, tissue culture plates were heated at 60° C. to melt the agarose, the cells harvested with a micro-harvester onto glass fiber filters and the radioactivity determined. Percent inhibition (PCI) was determined using the formula: PCI=1-(CPM treatment group […] CPM control group). Determinations of control group proliferation were performed in quadruplicate, while treatment group proliferation was determined in triplicate. […]"}, "[2]": {"tested_on": "U87MG glioblastoma", "assay": "SC xenograft in mice", "type": "in vivo, human", "method": "(§1) Cell lines were grown in appropriate medium (see Appendix 1). Cells were harvested at or near confluency with 0.05% Trypsin-EDTA and pelleted at 450×g for 10 min. Pellets were resuspended in sterile PBS or media (without FBS) to a particular concentration and the cells were implanted into the hindflank of mice. Tumor growth was measured over 3 to 6 weeks using venier calipers. Tumor volumes were calculated as a product of length×width×height unless otherwise indicated. P values were calculated using the Students' t-test.\n(§2) C6 and SKOV-3(T) cells were grown in culture, as described in \"cell growth\" above, and implanted into the hind flank of a female Balb/c nu/nu mouse at 3×10^6 cells (for C6 experiments), or 1×10^7 cells (for SKOV-3 experiments) in […] of PBS on Day 0. U87MG, U118MG or U373MG human glioblastoma cells (obtained from the ATCC), or A4312 were also implanted into athymic mice. […] Tumors were measured using venier calipers and tumor volume was calculated as a product of tumor length, width, and height."}, "[3]": {"tested_on": "SKOV3T ovarian tumor", "assay": "SC xenograft in mice", "type": "in vivo, human", "method": "as §1, §2"}, "[4]": {"tested_on": "U373MG glioblastoma", "assay": "SC xenograft in mice", "type": "in vivo, human", "method": "as §1, §2"}, "[5]": {"tested_on": "U118 glioblastoma", "assay": "SC xenograft in mice", "type": "in vivo, human", "conditions": "15 mg/kg", "method": "as §1, §2"}, "[6]": {"tested_on": "A431 epidermoid tumor", "assay": "SC xenograft in mice", "type": "in vivo, human", "method": "as §1, §2"}, "[7]": {"conditions": "mice xenotransplanted with human ovarian cancer cells"}}, "note": "Entries after “also recorded” stand apart in the source; their conditions may differ."}
{"smiles": "Cc1oncc1C(=O)Nc1ccc(C(F)(F)F)cc1", "note": "[Compound A10, 5-methylisoxazole-4 carboxylic acid-(4-trifluromethyl)-anilide]", "values": [{"measurement": "tumor cell growth", "setting": "[1]; 0 to 400 mM", "value": "tumor cell growth decreased for both types of tumors"}, {"measurement": "IC50", "setting": "[1]; Homo sapiens, range over six patients, read-out: IC50, GBM tumors", "value": "39 to 198", "unit": "µM"}, {"measurement": "% Inhibition", "setting": "[2]; 5 mg/kg", "value": 52, "unit": "%"}, {"measurement": "% Inhibition", "setting": "[2]; 10 mg/kg", "value": 58, "unit": "%"}, {"measurement": "% Inhibition", "setting": "[2]; 15 mg/kg", "value": 66, "unit": "%"}, {"measurement": "% Inhibition", "setting": "[2]; 20 mg/kg", "value": 92, "unit": "%"}, {"measurement": "inhibition in tumor growth", "setting": "[3]; 15 mg/kg/day (DMSO), after 20 days", "value": "greater than 90%"}, {"measurement": "cytotoxicity or mortality", "setting": "[3]; [7]", "value": "without significant cytotoxicity or mortality"}, {"measurement": "ovarian tumor growth", "setting": "[3]; [7]", "value": "nearly complete inhibition of ovarian tumor growth"}, {"measurement": "% Inhibition", "setting": "[3]; nu/nu, 15 mg/kg/day, day 21", "value": 94, "unit": "%"}, {"measurement": "In Vivo inhibition", "setting": "[3]; xenografted athymic mice", "value": 95, "unit": "%"}, {"measurement": "% Inhibition", "setting": "[4]; 15 mg/kg", "value": 54, "unit": "%"}, {"measurement": "% Inhibition", "setting": "[4]; nu/nu, 15 mg/kg/day, day 37", "value": 54, "unit": "%"}, {"measurement": "% Inhibition", "setting": "[5]", "value": 57, "unit": "%"}, {"measurement": "effect on A431 tumor growth", "setting": "[6]; 15 mg/kg/day, DMSO", "value": "no more than 25%"}, {"measurement": "growth of xenograft", "setting": "[6]; 12 to 20 mg/kg/day", "value": "did not significantly inhibit the growth of xenotransplanted cells expressing EGF receptor; also recorded: failed to significantly inhibit the growth"}, {"measurement": "% Inhibition", "setting": "[6]; nu/nu, 15 mg/kg/day, day 15", "value": 40, "unit": "%"}]}
